Reference: patent US12391648B2, “Pyridyloxy thioester derivative and preparation method therefor, herbicidal composition, and application” (Qingdao Kingagroot Chemical Compound Co., Ltd., priority 2018, dated 2025)

Experiments:
Assay in all cases: Post-emergence test experiment (Table 3, 1000 g/ha)
Assay type in all cases: in vivo
Details in all cases: post-emergence spray, after 3 weeks, fresh weight inhibition
Monochoria vaginalis = test system: Monochoria vaginalis
Summary of the method: (§1)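 Activity graded levels 0-5 by fresh-weight inhibition (level 5 above 85%, level 0 below 5%), assessed 3 weeks after treatment. Plants grown in greenhouse pots were sprayed post-emergence at 2-3 leaves using acetone/tween-80 solutions with methyl oleate synergist (1.5 L/ha).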

Setaria viridis = test system: Setaria viridis
Summary of the method: as §1

Digitaria sanguinalis = test system: Digitaria sanguinalis
Summary of the method: as §1

Galium spurium = test system: Galium spurium
Summary of the method: as §1

Abutilon theophrasti = test system: Abutilon theophrasti
Summary of the method: as §1

Leptochloa chinensis = test system: Leptochloa chinensis
Summary of the method: as §1

Compound	Activity level (growth inhibition rate) Monochoria Vaginalis (Monochoria vaginalis)	Activity level (growth inhibition rate) Setaria viridis (Setaria viridis)	Activity level (growth inhibition rate) Digitaria sanguinalis (Digitaria sanguinalis)	Activity level (growth inhibition rate) Galium spurium (Galium spurium)	Activity level (growth inhibition rate) Abutilon theophrasti (Abutilon theophrasti)	Activity level (growth inhibition rate) Leptochloa chinensis (Leptochloa chinensis)
CSC(=O)C(C)Oc1nc(Cl)c(C2CC2)c(N)c1Cl (stereo not drawn) [Compound 10]	5 (Level 5: the growth inhibition rate is greater than 85%)	5 (Level 5: the growth inhibition rate is greater than 85%)	5 (Level 5: the growth inhibition rate is greater than 85%)	5 (Level 5: the growth inhibition rate is greater than 85%)	5 (Level 5: the growth inhibition rate is greater than 85%)	5 (Level 5: the growth inhibition rate is greater than 85%)
CSC(=O)C(C)Oc1nc(C(F)(F)F)c(F)c(N)c1C(C)C (stereo not drawn) [Compound 11]	5 (Level 5: the growth inhibition rate is greater than 85%)	5 (Level 5: the growth inhibition rate is greater than 85%)	5 (Level 5: the growth inhibition rate is greater than 85%)	5 (Level 5: the growth inhibition rate is greater than 85%)	5 (Level 5: the growth inhibition rate is greater than 85%)	5 (Level 5: the growth inhibition rate is greater than 85%)
CSC(=O)C(C)Oc1nc(F)c(Br)c(N)c1Br (stereo not drawn) [Compound 12]	5 (Level 5: the growth inhibition rate is greater than 85%)	5 (Level 5: the growth inhibition rate is greater than 85%)	5 (Level 5: the growth inhibition rate is greater than 85%)	5 (Level 5: the growth inhibition rate is greater than 85%)	5 (Level 5: the growth inhibition rate is greater than 85%)	5 (Level 5: the growth inhibition rate is greater than 85%)
CSC(=O)C(C)Oc1ncc(I)c(N)c1I (stereo not drawn) [Compound 13]	5 (Level 5: the growth inhibition rate is greater than 85%)	5 (Level 5: the growth inhibition rate is greater than 85%)	5 (Level 5: the growth inhibition rate is greater than 85%)	5 (Level 5: the growth inhibition rate is greater than 85%)	5 (Level 5: the growth inhibition rate is greater than 85%)	5 (Level 5: the growth inhibition rate is greater than 85%)
CCCc1c(F)nc(OC(C)C(=O)SC)c(C2CC2)c1N (stereo not drawn) [Compound 14]	5 (Level 5: the growth inhibition rate is greater than 85%)	5 (Level 5: the growth inhibition rate is greater than 85%)	5 (Level 5: the growth inhibition rate is greater than 85%)	5 (Level 5: the growth inhibition rate is greater than 85%)	5 (Level 5: the growth inhibition rate is greater than 85%)	5 (Level 5: the growth inhibition rate is greater than 85%)
CSC(=O)C(C)Oc1nc(F)c(C(F)(F)F)c(N)c1Cl (stereo not drawn) [Compound 15]	5 (Level 5: the growth inhibition rate is greater than 85%)	5 (Level 5: the growth inhibition rate is greater than 85%)	5 (Level 5: the growth inhibition rate is greater than 85%)	5 (Level 5: the growth inhibition rate is greater than 85%)	5 (Level 5: the growth inhibition rate is greater than 85%)	5 (Level 5: the growth inhibition rate is greater than 85%)
CCSC(=O)C(C)Oc1ncc(Cl)c(N)c1C(F)(F)F (stereo not drawn) [Compound 16]	5 (Level 5: the growth inhibition rate is greater than 85%)	5 (Level 5: the growth inhibition rate is greater than 85%)	5 (Level 5: the growth inhibition rate is greater than 85%)	5 (Level 5: the growth inhibition rate is greater than 85%)	5 (Level 5: the growth inhibition rate is greater than 85%)	5 (Level 5: the growth inhibition rate is greater than 85%)
CSC(=O)C(C)Oc1nc(I)c(Cl)c(N)c1Cl (stereo not drawn) [Compound 17]	5 (Level 5: the growth inhibition rate is greater than 85%)	5 (Level 5: the growth inhibition rate is greater than 85%)	5 (Level 5: the growth inhibition rate is greater than 85%)	5 (Level 5: the growth inhibition rate is greater than 85%)	5 (Level 5: the growth inhibition rate is greater than 85%)	5 (Level 5: the growth inhibition rate is greater than 85%)
CCCc1c(OC(C)C(=O)SCC(F)(F)F)nc(Br)c(Cl)c1N (stereo not drawn) [Compound 18]	5 (Level 5: the growth inhibition rate is greater than 85%)	5 (Level 5: the growth inhibition rate is greater than 85%)	5 (Level 5: the growth inhibition rate is greater than 85%)	5 (Level 5: the growth inhibition rate is greater than 85%)	5 (Level 5: the growth inhibition rate is greater than 85%)	5 (Level 5: the growth inhibition rate is greater than 85%)
CCCCC(CC)CSC(=O)C(C)Oc1nc(C)c(C)c(N)c1C (stereo not drawn) [Compound 19]	5 (Level 5: the growth inhibition rate is greater than 85%)	5 (Level 5: the growth inhibition rate is greater than 85%)	5 (Level 5: the growth inhibition rate is greater than 85%)	5 (Level 5: the growth inhibition rate is greater than 85%)	5 (Level 5: the growth inhibition rate is greater than 85%)	5 (Level 5: the growth inhibition rate is greater than 85%)
CSC(=O)C(C)Oc1nc(F)c(Cl)c(N)c1C (stereo not drawn) [Compound 20]	5 (Level 5: the growth inhibition rate is greater than 85%)	5 (Level 5: the growth inhibition rate is greater than 85%)	5 (Level 5: the growth inhibition rate is greater than 85%)	5 (Level 5: the growth inhibition rate is greater than 85%)	5 (Level 5: the growth inhibition rate is greater than 85%)	5 (Level 5: the growth inhibition rate is greater than 85%)
CSC(=O)C(C)Oc1ncc(Cl)c(N)c1C (stereo not drawn) [Compound 21]	5 (Level 5: the growth inhibition rate is greater than 85%)	5 (Level 5: the growth inhibition rate is greater than 85%)	5 (Level 5: the growth inhibition rate is greater than 85%)	5 (Level 5: the growth inhibition rate is greater than 85%)	5 (Level 5: the growth inhibition rate is greater than 85%)	5 (Level 5: the growth inhibition rate is greater than 85%)
CSC(=O)C(C)Oc1nc(F)c(Cl)c(N)c1C1CC1 (stereo not drawn) [Compound 22]	5 (Level 5: the growth inhibition rate is greater than 85%)	5 (Level 5: the growth inhibition rate is greater than 85%)	5 (Level 5: the growth inhibition rate is greater than 85%)	5 (Level 5: the growth inhibition rate is greater than 85%)	5 (Level 5: the growth inhibition rate is greater than 85%)	5 (Level 5: the growth inhibition rate is greater than 85%)
